According to paper PMC5510868 (PLoS ONE, 2017):
Entries after “also recorded” stand apart in the source; their conditions may differ. Where two headings read alike, the source gives them in different places.

How the values were obtained:
[1] = Serum metabolite concentrations and parent compound/metabolite ratios at baseline and in the third trimester (TDM, linear mixed model); conditions: for Change from baseline conc., Estimate (parent compound or metabolite) / Parent compound / metabolite ratio (PMR), change from baseline, estimate: baseline to third trimester (gestational week 34); for Baseline conc., Estimate (parent compound or metabolite) / Parent compound / metabolite ratio (PMR), baseline estimate: day 0 (non-pregnant); for Baseline conc., Estimate (parent compound or metabolite) / Loge serum concentration, Intercept estimate (parent compound or metabolite): only analyses with metabolite data; for Baseline conc., Estimate (parent compound or metabolite): dose-adjusted to DDD; for Parent compound / metabolite ratio (PMR), third trimester estimate: gestational week 34; for Loge PMR, Intercept estimate / Loge PMR, Change per gestational week estimate: loge-transformed parent compound/metabolite ratio; for Loge PMR, Intercept estimate: baseline; for Loge PMR, Change per gestational week estimate / Loge serum concentration, Change per gestational week estimate (parent compound or metabolite): per week of pregnancy; for Loge serum concentration, Intercept estimate (parent compound or metabolite) / Loge serum concentration, Change per gestational week estimate (parent compound or metabolite): loge-transformed; for Loge serum concentration, Intercept estimate (parent compound or metabolite): baseline (day 0 of pregnancy); for Change of parent compound or metabolite serum concentration in pregnancy (in words): analyses with metabolite data (Table 3); for Parent compound / metabolite ratio in mid third trimester lower than baseline: value printed as size of the decline
Protocol: (§1) Quantification of the drug concentrations was performed with liquid chromatography-mass spectrometry/tandem mass spectrometry (LC-MS/LC-MS/MS). […] In brief, the drugs were extracted from serum by liquid-liquid extraction, using a mixture of hexane, acetonitrile and/or butanol, or dichloromethane and isopropanol. Thereafter, the analytes were separated on C18 columns using methanol, acetonitrile, formic acid or ammonium acetate as mobile phases, and quantified on LC-MS or LC-MS-MS systems. Calibration curves were constructed for each assay with drug-free human serum by the addition of varying concentrations of the antidepressants and their respective metabolites.
(§2) Serum concentrations in ng/mL were divided by the daily dose used by the person at the time of sampling, providing a serum concentration/dose ratio, and then multiplied by the defined daily dose (DDD), which is the assumed average maintenance dose per day for that drug used for its main indication in adults [28]. […] All concentrations presented and discussed in this article, including tables and figures, are dose-adjusted to the DDD of the drug.
(§3) For drugs where both the parent drug and the metabolite were measured, parent drug/metabolite concentration ratios during pregnancy were compared to baseline values as described above; ratios were loge-transformed and fitted into a linear mixed model, estimating the baseline ratios and the effect of each gestational week.
(§4) All model parameters, including variance components, were estimated by the method of maximum likelihood using STATA 13 command “mixed”. […] P values less than 0.05 were considered statistically significant.

[2] = Dose-adjusted serum antidepressant concentrations across pregnancy compared to the women's own baseline (routine TDM, LC-MS, linear mixed model); type: in vivo, human; conditions: for Change of serum concentration in pregnancy compared to baseline (in words): fluoxetine and venlafaxine = active moiety; for Serum concentration in third trimester lower than baseline (reduction): mid third trimester (gestational week 34) vs baseline, value given as size of the reduction; for Serum concentration in pregnancy as share of pre-pregnancy levels: drop to about this share of pre-pregnancy levels
From the text: After obtaining approval from the Regional Committee for Medical and Health Research Ethics in Mid Norway, the Norwegian Centre for Research Data (Data Protection Official), the Norwegian Directorate of Health and the Medical Birth Registry of Norway (MBRN) publication council, serum concentration data for antidepressants were collected from the two largest TDM services for psychotropic drugs in Norway (i.e. Department of Clinical Pharmacology at St. Olav University Hospital in Trondheim, and Center for Psychopharmacology at Diakonhjemmet Hospital in Oslo). […] The antidepressant TDM data contain serum concentration measurements taken in a naturalistic setting from psychiatry inpatients and outpatients. In addition to measured serum concentrations, the databases contain information obtained from the requisition forms, such as the prescribed antidepressant dose, time of last drug intake, time of blood sampling, and types and doses of concomitant drugs.
First, a combined laboratory TDM file was created, containing all serum concentration measurements (for any drug) in the period October 1999 –December 2011 for all women of reproductive age (i.e. born 1950–2000). […] Using the unique 11-digit identification number assigned to all individuals living in Norway, the MBRN could identify all pregnant women in the TDM data set. […] For the current study we retrieved the following information: the personal identification number, the drug analysed, the measured drug serum concentration, time of last dose, time of sampling, drug dose, concomitant drug use, other clinical information, name of the responsible physician, gestational week at the time of sampling (calculated from the sampling date and the pregnancy onset date as determined by obstetric ultrasound if available, or by last menstruation), and date of delivery.
If the requisition form lacked information on drug dose the authors contacted the responsible physician, who attempted to obtain this information from the medical record. If we were unable to retrieve this information, the analysis was excluded.
Having identified the pregnant women and their individual pregnancy periods in the extracted data file, we used the original TDM databases to retrieve serum concentration measurements before and after pregnancy from the same women, to serve as baseline observations for each of the included subjects. […] These analyses were not used in the statistical model, only for visual comparison. The remaining 420 analyses were used for the statistical comparisons.
Since multiple measurements were available from the same patient a linear mixed model was used. […] Baseline measurements were set to gestational week 0 in the model. Then, the effect of gestational week on concentration compared to baseline could be estimated for each drug.
Data are presented as means with 95% confidence intervals.

[3] = cited from earlier work
[4] = in vivo
Protocol: as §1, §2, §3, §4

[5] = Previous studies of antidepressant plasma/serum concentrations in pregnancy (literature quoted in the Discussion); type: in vivo, human; conditions: 0.3 ng/mL per gestational week applied to this study's data

Row | Structure (SMILES) | Change from baseline conc., Estimate (parent compound or metabolite) [1] | Parent compound / metabolite ratio (PMR), change from baseline, estimate [1] | Baseline conc., Estimate (parent compound or metabolite) [1] [ng/mL] | Parent compound / metabolite ratio (PMR), baseline estimate [1] | Parent compound / metabolite ratio (PMR), third trimester estimate [1] | Loge PMR, Intercept estimate [1] | Loge PMR, Change per gestational week estimate [1] | Loge serum concentration, Intercept estimate (parent compound or metabolite) [1] | Loge serum concentration, Change per gestational week estimate (parent compound or metabolite) [1] | Change of parent compound or metabolite serum concentration in pregnancy (in words) [1] | Change of serum concentration in pregnancy compared to baseline (in words) ([2]; dose-adjusted) | also measured
1 | CNCCCC1(c2ccc(F)cc2)OCc2cc(C#N)ccc21 (stereo not drawn) [Desmethylescitalopram] |  |  |  |  |  |  |  |  |  |  |  | Loge serum concentration, Change per gestational week estimate (parent compound or metabolite) [4]: -0.004
2 | N[C@H]1CC[C@@H](c2ccc(Cl)c(Cl)c2)c2ccccc21 [Desmethylsertraline] | +120% |  | 18.4 |  |  |  |  | 2.914 | 0.023 | increasing levels |  | 
3 | COCCCC/C(=N\OCCN)c1ccc(C(F)(F)F)cc1 [Fluvoxamine] |  |  |  |  |  |  |  |  |  |  |  | Serum concentration in pregnancy as share of pre-pregnancy levels [2]: about 50%; Serum concentration in third trimester lower than baseline (reduction) [2]: 56%
4 | NCCC(Oc1ccc(C(F)(F)F)cc1)c1ccccc1 (stereo not drawn) [Norfluoxetine] | 0% |  | 83.7 |  |  |  |  | 4.427 | 0.000 | remain largely unchanged |  | 
5 | CN(C)CC(c1ccc(O)cc1)C1(O)CCCCC1 (stereo not drawn) [O-desmethylvenlafaxine] | -13% |  | 91.5 |  |  |  |  | 4.516 | -0.004 | did not change |  | Change of metabolite levels in pregnancy (in words) ([3]; prospective study of seven pregnancies): no change
6 | Fc1ccc([C@@H]2CCNC[C@H]2COc2ccc3c(c2)OCO3)cc1 [Paroxetine] |  |  |  |  |  |  |  |  |  |  |  | Reduction in week 34 to which the cited decline per week translates for the present data [5]: 30%; Serum concentration in pregnancy as share of pre-pregnancy levels [2]: about 50%; Serum concentration in third trimester lower than baseline (reduction) [2]: 51%; Concentrations in third trimester compared to postpartum (in words) ([3]; 12 pregnancies, no numbers provided, ref Brogtrop et al. [17]): lower concentrations in the third trimester compared to postpartum; Increase of maternal plasma concentration per gestational week ([3]; intermediate and poor CYP2D6 metabolizers): 0.6 ng/mL per gestational week; Decline of maternal plasma concentration per gestational week ([3]; ultrarapid or extensive CYP2D6 metabolizers, 74 pregnancies, ref Ververs et al. [20]): 0.3 ng/mL per gestational week
7 | CNCC[C@H](Oc1ccc(C(F)(F)F)cc1)c1ccccc1 [S-fluoxetine] |  |  |  |  |  |  |  |  |  |  |  | Enantiomer concentration change in pregnancy, chiral analysis (in words) ([3]; in vivo): declined more than R-fluoxetine
8 | CN[C@H]1CC[C@@H](c2ccc(Cl)c(Cl)c2)c2ccccc21 [Sertraline] | +83% | -20% | 8.6 | 0.5 | 0.4 | -0.764 | -0.006 | 2.147 | 0.018 | increasing levels | statistically significant increase | Parent compound / metabolite ratio in mid third trimester lower than baseline [1]: 20%; Change of concentrations in pregnancy in previous studies (in words) ([3]; eight and six pregnancies): variable/non-significant observations
9 | COc1ccc(C(CN(C)C)C2(O)CCCCC2)cc1 (stereo not drawn) [Venlafaxine] | -40% |  | 35.8 |  |  | -0.927 | -0.011 | 3.577 | -0.015 | trend towards a statistically significant decline | remain largely unchanged | Change of serum concentration in pregnancy compared to baseline (in words) ([2]; dose-adjusted, listed as venlafaxine): did not change significantly; also recorded: not statistically significant; Reduction in plasma levels in pregnancy compared to baseline ([3]; case report, ref Klier et al. [16]): more than 50%; Reduction in levels in pregnancy ([3]; prospective study of seven pregnancies, ref ter Horst et al. [24]): 13%

More lines, main results first:

Row | Change from baseline conc., Estimate (parent compound or metabolite) [1] | Parent compound / metabolite ratio (PMR), change from baseline, estimate [1] | Baseline conc., Estimate (parent compound or metabolite) [1] [ng/mL] | Parent compound / metabolite ratio (PMR), baseline estimate [1] | Parent compound / metabolite ratio (PMR), third trimester estimate [1] | Loge PMR, Intercept estimate [1] | Loge PMR, Change per gestational week estimate [1] | Loge serum concentration, Intercept estimate (parent compound or metabolite) [1] | Loge serum concentration, Change per gestational week estimate (parent compound or metabolite) [1] | Change of parent compound or metabolite serum concentration in pregnancy (in words) [1] | Structure (SMILES) | Change of serum concentration in pregnancy compared to baseline (in words) ([2]; dose-adjusted) | also measured
10 | -39% | -13% | 32.3 | 2.6 | 2.3 | 0.973 | -0.004 | 3.475 | -0.015 |  | CN(C)CCCC1(c2ccc(F)cc2)OCc2cc(C#N)ccc21 (stereo not drawn) [Citalopram] | remain largely unchanged | Change of parent compound / metabolite ratio in pregnancy (in words) ([1]; third trimester vs baseline): did not reach statistical significance; Serum concentration in third trimester lower than baseline (reduction) [2]: 24%; Third trimester concentrations lower than baseline values ([3]; 11 pregnancies, ref Heikkinen et al. [13]): 42%; Third trimester concentrations lower than baseline ([3]; two pregnancies, ref Sit et al. [19]): 26%
11 | -33% |  | 12.6 |  |  |  |  | 2.534 | -0.012 |  | CNCCCC1(c2ccc(F)cc2)OCc2cc(C#N)ccc21 (stereo not drawn) [Desmethylcitalopram] |  | 
12 | +24% | +40% | 8.4 | 1.8 | 2.5 | 0.581 | 0.010 | 2.129 | 0.006 |  | CN(C)CCC[C@@]1(c2ccc(F)cc2)OCc2cc(C#N)ccc21 [Escitalopram] | did not change significantly; also recorded: not statistically significant; also recorded: remain largely unchanged; also recorded: close to zero | Parent compound / metabolite ratio (PMR), change from baseline, estimate ([1]; listed as escitalopram): 40%; concentration at 4 gestational week ([2]; female, human, serum, 10 mg/day, one analysis in week 4, dose-adjusted, read-out: Observed serum concentration, outlier not shown in Fig 2): 36 ng/mL; concentration at 5 gestational week ([2]; female, human, serum, 10 mg/day, one analysis in week 5, dose-adjusted, read-out: Observed serum concentration, outlier not shown in Fig 2): 40 ng/mL; Observed serum concentration, outlier not shown in Fig 2 ([2]; one analysis in week 0 (baseline), dose-adjusted): 36 ng/mL; Change of concentrations throughout pregnancy (in words) ([3]; five pregnancies, ref Sit et al. [19]): only minor declines or no change
13 | -31% | -36% | 77.7 | 1.0 | 0.6 | -0.045 | -0.013 | 4.353 | -0.011 | decline | CNCCC(Oc1ccc(C(F)(F)F)cc1)c1ccccc1 (stereo not drawn) [Fluoxetine] | did not change significantly; also recorded: not statistically significant; also recorded: remain largely unchanged; also recorded: no major decline | Parent compound / metabolite ratio in mid third trimester lower than baseline [1]: 36%; Third trimester concentrations of the active moiety lower than baseline ([3]; fluoxetine plus norfluoxetine, 11 pregnancies, ref Heikkinen et al.): 32%
